Data taken from article PMC5618191 (Toxins, 2017).
Where two headings read alike, the source gives them in different places.

Legend:
[1] = test system: ME-180 cervix metastasis cells; test: Cell viability assay (MTT, 72 h); assay type: cell-based, human; conditions: ME-180, sparse (5–10% confluency)
Experimental: (§1) For the cell lines KB-3-1 and SW480 2 × 10^3 cells, for NIH/3T3, CT-26, HaCaT, and GH354 cells 3 × 10^3 cells and for ME-180 and SW620 cells 4 × 10^3 cells were seeded into 96-well pates and incubated at 37 °C (5% CO2) overnight. […] For higher cell confluency, NIH/3T3, CT-26, HaCaT, KB-3-1, and SW480 cells were grown to a cell density of approximately 50–60% before treatment. […] The percentage of viable cells was detected after incubation with 3-(4,5-dimethylthiazol-2-yl)-2,5-diphenyltetrazolium bromide (MTT) at 37 °C for 1–4 h, depending on the cell line, according to the user manual (EZ4U, Biomedica, Vienna, Austria). […] All experiments were conducted using full-growth media with 10% FBS in triplicate and repeated three times. The cell confluency was analyzed by Image J 1.50i (NIH, New York, NY, USA).

[2] = test system: HaCaT non-malignant keratinocytes; test: Cell viability assay (MTT, 72 h); assay type: cell-based, human
Experimental: as §1

[3] = test system: GH354 cervix adenocarcinoma cells; test: Cell viability assay (MTT, 72 h); assay type: cell-based, human; conditions: GH354, sparse (5–10% confluency)
Experimental: as §1

[4] = test system: SW620 colon metastasis cells; test: Cell viability assay (MTT, 72 h); assay type: cell-based, human
Experimental: as §1

[5] = test system: SW480 colorectal adenocarcinoma cells; test: Cell viability assay (MTT, 72 h); assay type: cell-based, human
Experimental: as §1

[6] = test system: KB-3-1 cervix carcinoma cells; test: Cell viability assay (MTT, 72 h); assay type: cell-based, human
Experimental: as §1

[7] = test system: CT-26 murine colon carcinoma cells; test: Cell viability assay (MTT, 72 h); assay type: cell-based, mouse
Experimental: as §1

[8] = test system: NIH/3T3 murine non-malignant fibroblasts; test: Cell viability assay (MTT, 72 h); assay type: cell-based, mouse
Experimental: as §1

[9] = test system: KB-3-1 cells; test: Annexin-V/PI staining (cell death analysis); assay type: cell-based, human; conditions: KB-3-1, 24 h
Experimental: (§2) 1. Supplementary Materials and Methods […]
1.2 Annexin-V/PI Staining
KB-3-1 cells were seeded (2x10^5cells/well) and treated on the following day for 24 h with the […]
Cells were trypsinized, centrifuged (300g, 5 min) and resuspended in 100 µL buffer A (10 mM HEPES, 140 mM NaCl and 2.5 mM CaCl2) and stained for 15 min in the dark with PI (1 µg/mL) and Annexin-V-APC (20 µL/mL, BD Biosciences). Two-hundred µL of buffer A were then added and 10,000 cells were measured by FACS analysis (FACSCalibur; Becton Dickinson). Percentages of viable, early and late apoptotic cells and of necrotic cells were determined by CellQuest Pro software (Becton, Dickinson and Company, NY, USA). […]
The following primary […]
(§3) antibodies specific for the following targets were diluted 1:1000 in TBST/3% BSA (w/v): PARP, Bak, Bax, Bim, Bcl-xL (polyclonal, Cell Signaling Technology, Beverly, MA, USA), caspase 9, cl. caspase 9 (monoclonal, Cell Signaling Technology) and β-actin (monoclonal, Clone AC-15, Sigma-Aldrich).
Secondary horseradish peroxidase-labeled antibodies (goat anti-rabbit or anti-mouse, Santa Cruz Biotechnology, Dallas, Texas, TX, USA) were diluted 1:10,000 in TBST/1% BSA. […]
(b) Mean percentages (± SD) of early (white bars) and late apoptotic (gray bars) and of necrotic cells (black bars) were determined by Annexin-V/PI staining after cells were treated for 24 h with the […]

[10] = test system: HUVEC cells; test: Vessel forming and migratory ability of HUVEC cells; assay type: cell-based, human; conditions: subtoxic concentrations, unpublished data
[11] = test system: KB-3-1 cells; test: Western blot analysis of apoptosis proteins; assay type: cell-based, human; conditions: KB-3-1, 24 h
Experimental: as §2
1.3 Western Blot Analysis […]
as §3, with “according to standard procedures, separated by SDS-PAGE, and transferred to a polyvinylidene difluoride membrane for Western blotting as described previously. The following primary antibodies” for “antibodies”
Secondary horseradish peroxidase-labeled antibodies (goat anti-rabbit or anti-mouse, Santa Cruz Biotechnology, Dallas, Texas, TX, USA) were diluted 1:10,000 in TBST/1% BSA.
(black circles), human non-malignant keratinocytes HaCaT (open circles), murine colon carcinoma CT-26 (asterisks), human cervix carcinoma KB-3-1 (gray triangle) and human colon carcinoma SW480 cells (gray square) at higher density. Cells were grown to a 50-60% confluence and treated with the […]
The IC50 level is indicated by the dotted line. Mean values (± SD) of one representative experiment in triplicate are shown.
Figure S4. […]
Significant differences to untreated controls are marked by asterisks (***p<0.001). (c) Expression of PARP and caspase 9 and amount of cleaved (Cl.) PARP and cleaved Caspase 9, as well as protein expression of Bim, Bax, Bak and Bcl-xL in beauvericin-treated (24 h) and untreated cells were determined by Western Blotting. β-actin served as loading control. […]

[12] = SW620, sparse (5–10% confluency), 72 h
[13] = SW480, sparse (5–10% confluency)
[14] = KB-3-1, sparse (5–10% confluency)
[15] = CT-26, sparse (5–10% confluency), 72 h
[16] = NIH/3T3, sparse (5–10% confluency), 72 h

beauvericin
Mean IC25 ± SD [1]: 1.6 ± 0.8 µM
Mean IC75 ± SD [1]: 4.5 ± 1.2 µM
IC50 ([1]; read-out: Mean IC50 ± SD): 2200 ± 700 nM
IC50 ([2]; higher density (50–60% confluency), read-out: IC50 value): > 10 µM
Mean IC25 ± SD ([2]; sparse (5–10% confluency)): 2.7 ± 0.2 µM
Mean IC75 ± SD ([2]; sparse (5–10% confluency)): 4.8 ± 0.7 µM
IC50 ([2]; sparse (5–10% confluency), read-out: Mean IC50 ± SD): 3.9 ± 0.4 µM
Mean IC25 ± SD [3]: 2.2 ± 0.6 µM
Mean IC75 ± SD [3]: 6.3 ± 2.1 µM
IC50 ([3]; read-out: Mean IC50 ± SD): 3.6 ± 1.2 µM
Mean IC25 ± SD [4, 12]: 0.3 ± 0.02 µM
Mean IC75 ± SD [4, 12]: 1.9 ± 0.2 µM
IC50 ([4]; SW620, sparse (5–10% confluency), 72 h, read-out: Mean IC50 ± SD): 700 ± 100 nM
IC50 of SW620 lower as compared to SW480 ([4]; sparse conditions): 4.7 fold
IC50 of SW620 lower than normal HaCaT cells ([4]; sparse conditions): 5.6 fold
IC50 ([5]; SW480, higher density (50–60% confluency), read-out: IC50 value): 3.7 µM
Mean IC25 ± SD [5, 13]: 2.1 ± 1.3 µM
Mean IC75 ± SD [5, 13]: 4.2 ± 2.7 µM
IC50 ([5]; SW480, sparse (5–10% confluency), read-out: Mean IC50 ± SD): 3.3 ± 0.3 µM
IC50 ([6]; KB-3-1, higher density (50–60% confluency), read-out: IC50 value): 4.3 µM
Mean IC25 ± SD [6, 14]: 2.6 ± 0.9 µM
Mean IC75 ± SD [6, 14]: 3.6 ± 0.9 µM
IC50 ([6]; KB-3-1, sparse (5–10% confluency), read-out: Mean IC50 ± SD): 3.1 ± 0.7 µM
Tumor cell viability ([7]; 0.5 µM, higher density (50–60%), murine models): significantly reduced
Mean IC25 ± SD [7, 15]: 1.4 ± 0.2 µM
Mean IC75 ± SD [7, 15]: 2.7 ± 0.5 µM
IC50 ([7]; CT-26, sparse (5–10% confluency), 72 h, read-out: Mean IC50 ± SD): 1800 ± 200 nM
Viability of non-malignant cells ([8]; 1 µM, higher density (50–60%), murine models): no reduction of viability
IC50 ([8]; NIH-3T3, higher density (50–60% confluency), 72 h, read-out: IC50 value): 9.4 µM
Mean IC25 ± SD [8, 16]: 1.2 ± 0.6 µM
Mean IC75 ± SD [8, 16]: 6.5 ± 0.7 µM
IC50 ([8]; NIH/3T3, sparse (5–10% confluency), 72 h, read-out: Mean IC50 ± SD): 3.1 ± 0.2 µM
IC50 higher for non-malignant NIH/3T3 as compared to CT-26 ([8]; sparse conditions): 1.7 fold
IC75 higher for non-malignant NIH/3T3 as compared to CT-26 ([8]; sparse conditions): 2.4 fold
Concentration at which induction of apoptotic cell death was clearly detectable [9]: > 2 µM
Vessel forming and migratory ability of HUVEC cells [10]: distinctly inhibited
Antiapoptotic Bcl-xL [11]: reduced
Cleavage of PARP and caspase 9 [11]: induced
Proapoptotic Bcl-2 family members Bim and Bak [11]: upregulation
